Laboratory results reported in ChEMBL document CHEMBL6092221, “Discovery of a Novel Macrocyclic Noncovalent CDK7 Inhibitor for Cancer Therapy” (J Med Chem, 2024).

Columns and labels:
[1] = Permeability in human Caco-2 cells; format: ADME, cell-based; conditions: read-out: permeability
[2] = Cmax in female Balb/c nude mouse at 5 mg/kg, po; format: ADME, organism-based; conditions: in vivo
[3] = Oral bioavailability in female Balb/c nude mouse at 5 mg/kg; format: ADME, organism-based; conditions: in vivo
[4] = Half life in rat at 1 mg/kg, iv; format: ADME, organism-based; conditions: in vivo
[5] = Half life in dog at 0.2 mg/kg, iv; format: ADME, organism-based, Canis lupus familiaris; conditions: in vivo
[6] = Half life in dog at 2 mg/kg, po; format: ADME, organism-based, Canis lupus familiaris; conditions: in vivo
[7] = Half life in mouse at 5 mg/kg, po; format: ADME, organism-based; conditions: in vivo
[8] = Clearance in mouse at 1 mg/kg, iv; format: ADME, organism-based; conditions: in vivo
[9] = Clearance in dog at 0.2 mg/kg, iv; format: ADME, organism-based, Canis lupus familiaris; conditions: in vivo
[10] = Volume of distribution at steady state in mouse at 1 mg/kg, iv; format: ADME, organism-based; conditions: in vivo, read-out: Vdss
[11] = Volume of distribution at steady state in dog at 0.2 mg/kg, iv; format: ADME, organism-based, Canis lupus familiaris; conditions: in vivo, read-out: Vdss
[12] = AUC(0 to t) in rat at 5 mg/kg, po; format: ADME, organism-based; conditions: in vivo
[13] = Cmax in mouse at 5 mg/kg, po; format: ADME, organism-based; conditions: in vivo
[14] = Cmax in dog at 2 mg/kg, po; format: ADME, organism-based, Canis lupus familiaris; conditions: in vivo
[15] = Oral bioavailability in rat at 5 mg/kg; format: ADME, organism-based; conditions: in vivo
[16] = Drug concentration in rat small intestine at 5 mg/kg, po measured after 0.5 hrs; format: ADME, organism-based; conditions: read-out: Ct
[17] = Drug concentration in rat plasma at 5 mg/kg, po measured after 0.5 hrs; format: ADME, organism-based
[18] = Drug concentration in rat plasma at 5 mg/kg, po measured after 8 hrs; format: ADME, organism-based
[19] = Half life in Sprague-Dawley rat at 100 mg/kg, po; format: ADME, organism-based; conditions: in vivo
[20] = Cmax in Sprague-Dawley rat at 100 mg/kg, po; format: ADME, organism-based; conditions: in vivo
[21] = Cmax in Sprague-Dawley rat at 300 mg/kg, po; format: ADME, organism-based; conditions: in vivo
[22] = AUC(0 to 24 hrs) in Sprague-Dawley rat at 100 mg/kg, po; format: ADME, organism-based; conditions: in vivo
[23] = AUC(0 to 48 hrs) in Sprague-Dawley rat at 300 mg/kg, po; format: ADME, organism-based; conditions: in vivo
[24] = biological target: Cyclin-dependent kinase 9 (Homo sapiens, UniProt P50750); assay: Inhibition of CDK9 (unknown origin)
Cyclin-dependent kinase 9, sequence (P50750 whole entry): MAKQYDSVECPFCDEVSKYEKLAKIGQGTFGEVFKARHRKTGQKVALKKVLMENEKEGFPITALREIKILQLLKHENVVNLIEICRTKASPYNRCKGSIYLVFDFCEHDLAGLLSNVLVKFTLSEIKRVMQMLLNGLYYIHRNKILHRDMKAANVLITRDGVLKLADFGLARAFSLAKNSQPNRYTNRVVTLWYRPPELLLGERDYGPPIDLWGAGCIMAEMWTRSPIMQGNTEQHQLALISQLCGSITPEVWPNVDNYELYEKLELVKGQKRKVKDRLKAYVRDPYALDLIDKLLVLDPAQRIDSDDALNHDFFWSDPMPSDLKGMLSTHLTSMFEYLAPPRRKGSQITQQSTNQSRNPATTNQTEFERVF

[25] = biological target: Serine/threonine-protein kinase D2 (Homo sapiens, UniProt Q9BZL6); assay: Inhibition of PRKD2 (unknown origin)
Serine/threonine-protein kinase D2, sequence (Q9BZL6 whole entry): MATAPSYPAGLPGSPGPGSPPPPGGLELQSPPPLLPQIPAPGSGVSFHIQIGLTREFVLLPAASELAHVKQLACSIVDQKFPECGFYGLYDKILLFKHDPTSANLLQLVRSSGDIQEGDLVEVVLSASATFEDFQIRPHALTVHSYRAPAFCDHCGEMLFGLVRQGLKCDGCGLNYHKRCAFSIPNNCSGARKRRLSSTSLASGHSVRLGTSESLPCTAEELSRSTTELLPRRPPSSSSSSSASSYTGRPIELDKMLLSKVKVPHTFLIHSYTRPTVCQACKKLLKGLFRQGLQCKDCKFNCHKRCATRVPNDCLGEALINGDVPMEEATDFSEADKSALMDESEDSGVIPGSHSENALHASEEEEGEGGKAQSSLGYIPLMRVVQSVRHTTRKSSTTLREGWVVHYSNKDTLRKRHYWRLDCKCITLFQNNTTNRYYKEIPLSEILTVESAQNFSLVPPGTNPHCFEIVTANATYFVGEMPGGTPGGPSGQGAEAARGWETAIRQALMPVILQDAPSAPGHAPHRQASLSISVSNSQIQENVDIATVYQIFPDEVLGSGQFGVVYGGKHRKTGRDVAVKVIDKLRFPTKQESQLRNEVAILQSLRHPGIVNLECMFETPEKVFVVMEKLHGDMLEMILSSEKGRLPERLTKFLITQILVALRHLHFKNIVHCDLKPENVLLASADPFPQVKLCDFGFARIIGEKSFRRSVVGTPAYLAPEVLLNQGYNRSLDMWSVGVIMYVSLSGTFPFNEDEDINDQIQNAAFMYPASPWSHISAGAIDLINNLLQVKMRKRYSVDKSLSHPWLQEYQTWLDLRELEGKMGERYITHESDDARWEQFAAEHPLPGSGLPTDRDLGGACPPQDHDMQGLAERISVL

[26] = biological target: T1, Ribosomal protein S6 kinase alpha-3 (Homo sapiens, UniProt P51812); assay: Inhibition of RSK2 (unknown origin)
T1 sequence (P51812 whole entry): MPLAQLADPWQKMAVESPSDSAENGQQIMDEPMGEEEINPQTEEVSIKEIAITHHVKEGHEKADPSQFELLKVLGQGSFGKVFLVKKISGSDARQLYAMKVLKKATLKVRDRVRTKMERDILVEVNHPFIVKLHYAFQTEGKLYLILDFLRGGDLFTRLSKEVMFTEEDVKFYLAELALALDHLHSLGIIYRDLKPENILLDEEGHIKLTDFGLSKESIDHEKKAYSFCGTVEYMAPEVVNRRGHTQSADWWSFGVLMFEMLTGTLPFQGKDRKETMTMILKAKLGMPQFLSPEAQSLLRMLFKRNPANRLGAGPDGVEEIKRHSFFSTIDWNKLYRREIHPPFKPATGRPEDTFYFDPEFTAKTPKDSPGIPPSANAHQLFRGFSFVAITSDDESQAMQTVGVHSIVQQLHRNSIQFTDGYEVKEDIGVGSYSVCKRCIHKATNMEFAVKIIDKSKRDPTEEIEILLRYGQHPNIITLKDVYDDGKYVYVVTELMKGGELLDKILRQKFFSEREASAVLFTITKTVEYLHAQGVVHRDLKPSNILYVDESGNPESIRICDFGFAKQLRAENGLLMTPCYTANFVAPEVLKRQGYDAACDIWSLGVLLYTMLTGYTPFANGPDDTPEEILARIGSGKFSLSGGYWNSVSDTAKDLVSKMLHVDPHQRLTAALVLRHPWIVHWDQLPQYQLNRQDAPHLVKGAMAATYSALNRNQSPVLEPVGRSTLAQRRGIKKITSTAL

[27] = Plasma protein binding in human assessed as unbound fraction; format: ADME, cell-free
[28] = Plasma protein binding in mouse assessed as unbound fraction; format: ADME, cell-free
[29] = Plasma protein binding in rat assessed as unbound fraction; format: ADME, cell-free
[30] = Metabolic stability in rat liver microsomes assessed as intrinsic clearance; format: ADME, Microsome; conditions: read-out: CLH
[31] = biological target: Cytochrome P450 1A2 (Homo sapiens, UniProt P05177); assay: Inhibition of CYP1A2 (unknown origin); format: ADME
Cytochrome P450 1A2, sequence (P05177 whole entry): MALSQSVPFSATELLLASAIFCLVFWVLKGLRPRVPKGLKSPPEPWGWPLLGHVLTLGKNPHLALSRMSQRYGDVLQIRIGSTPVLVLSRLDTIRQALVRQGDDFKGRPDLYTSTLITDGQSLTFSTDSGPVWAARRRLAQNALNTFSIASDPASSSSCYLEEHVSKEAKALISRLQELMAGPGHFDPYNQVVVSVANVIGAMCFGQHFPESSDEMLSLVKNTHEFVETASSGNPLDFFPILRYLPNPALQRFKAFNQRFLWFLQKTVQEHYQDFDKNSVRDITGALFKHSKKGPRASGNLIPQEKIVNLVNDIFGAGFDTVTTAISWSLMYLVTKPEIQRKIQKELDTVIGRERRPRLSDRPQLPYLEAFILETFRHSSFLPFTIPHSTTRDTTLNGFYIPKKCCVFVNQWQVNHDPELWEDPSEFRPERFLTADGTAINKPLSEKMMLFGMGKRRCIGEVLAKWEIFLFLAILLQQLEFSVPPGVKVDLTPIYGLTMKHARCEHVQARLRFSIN

[32] = biological target: Cytochrome P450 2D6 (Homo sapiens, UniProt P10635); assay: Inhibition of CYP2D6 (unknown origin); format: ADME
Cytochrome P450 2D6, sequence (P10635 whole entry): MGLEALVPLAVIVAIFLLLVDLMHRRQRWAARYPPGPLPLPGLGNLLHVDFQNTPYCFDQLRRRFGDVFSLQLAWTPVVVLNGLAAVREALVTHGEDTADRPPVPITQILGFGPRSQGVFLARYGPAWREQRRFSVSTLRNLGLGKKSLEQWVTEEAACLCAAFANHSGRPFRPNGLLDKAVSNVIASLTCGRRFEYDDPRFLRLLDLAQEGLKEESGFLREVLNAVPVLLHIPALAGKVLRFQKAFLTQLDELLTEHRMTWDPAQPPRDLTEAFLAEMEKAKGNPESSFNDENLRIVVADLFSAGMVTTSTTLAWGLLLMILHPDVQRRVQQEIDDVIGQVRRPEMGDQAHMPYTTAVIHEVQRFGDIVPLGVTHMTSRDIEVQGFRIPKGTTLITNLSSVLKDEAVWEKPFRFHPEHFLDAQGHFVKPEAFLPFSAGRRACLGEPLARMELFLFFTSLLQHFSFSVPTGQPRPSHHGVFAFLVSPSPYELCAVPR

[33] = biological target: Voltage-gated inwardly rectifying potassium channel KCNH2 (Homo sapiens, UniProt Q12809); assay: Inhibition of hERG; format: toxicity
Voltage-gated inwardly rectifying potassium channel KCNH2, sequence (Q12809 whole entry): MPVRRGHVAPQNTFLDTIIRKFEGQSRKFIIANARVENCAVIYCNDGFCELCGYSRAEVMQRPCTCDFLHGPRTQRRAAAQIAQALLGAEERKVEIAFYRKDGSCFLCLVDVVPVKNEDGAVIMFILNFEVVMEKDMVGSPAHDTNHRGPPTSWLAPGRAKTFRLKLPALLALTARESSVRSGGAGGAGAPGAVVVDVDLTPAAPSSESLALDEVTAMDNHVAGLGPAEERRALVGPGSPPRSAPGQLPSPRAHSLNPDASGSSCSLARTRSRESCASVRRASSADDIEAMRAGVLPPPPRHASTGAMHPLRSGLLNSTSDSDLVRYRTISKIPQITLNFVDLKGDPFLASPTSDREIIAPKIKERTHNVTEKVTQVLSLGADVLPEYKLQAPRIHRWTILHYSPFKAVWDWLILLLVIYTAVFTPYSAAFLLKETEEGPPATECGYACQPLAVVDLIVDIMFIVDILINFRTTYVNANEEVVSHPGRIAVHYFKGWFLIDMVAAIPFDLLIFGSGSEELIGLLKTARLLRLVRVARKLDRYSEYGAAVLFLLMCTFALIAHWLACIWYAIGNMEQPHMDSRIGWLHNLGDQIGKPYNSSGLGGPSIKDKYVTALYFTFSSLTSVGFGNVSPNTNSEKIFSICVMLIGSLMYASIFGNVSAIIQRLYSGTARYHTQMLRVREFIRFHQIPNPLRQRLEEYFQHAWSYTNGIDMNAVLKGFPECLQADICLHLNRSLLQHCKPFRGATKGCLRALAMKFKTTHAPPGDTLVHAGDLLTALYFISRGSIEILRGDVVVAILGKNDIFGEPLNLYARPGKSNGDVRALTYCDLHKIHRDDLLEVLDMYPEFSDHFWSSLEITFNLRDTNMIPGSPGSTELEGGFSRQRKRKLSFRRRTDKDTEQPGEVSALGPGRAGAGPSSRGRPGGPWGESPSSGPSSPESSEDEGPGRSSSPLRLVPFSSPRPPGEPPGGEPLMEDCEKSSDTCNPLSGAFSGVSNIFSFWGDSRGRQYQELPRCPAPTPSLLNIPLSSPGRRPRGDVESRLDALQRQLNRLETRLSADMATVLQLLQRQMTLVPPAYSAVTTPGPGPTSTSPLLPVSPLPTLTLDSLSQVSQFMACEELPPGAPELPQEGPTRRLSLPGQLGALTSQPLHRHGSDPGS

[34] = test system: OVCAR-3; assay: Antitumor activity against human OVCAR-3 cells xenografted in female Balb/c nude mouse assessed as tumor growth inhibition at 5 mg/kg, po administered once daily and measured on day 22; format: functional; conditions: OVCAR-3, 528 h, time 22 day, read-out: TGI
[35] = test system: OVCAR-3; assay: Antitumor activity against human OVCAR-3 cells xenografted in female Balb/c nude mouse assessed as tumor growth inhibition at 10 mg/kg, po administered once daily and measured on day 22; format: functional; conditions: OVCAR-3, 528 h, time 22 day, read-out: TGI
[36] = Half life in human OVCAR-3 cells xenografted in female Balb/c nude mouse plasma at 10 mg/kg, po administered once daily; format: ADME, organism-based
[37] = Cmax in human OVCAR-3 cells xenografted in female Balb/c nude mouse plasma at 2 mg/kg, po administered once daily; format: ADME, organism-based
[38] = AUC (0 to t) in human OVCAR-3 cells xenografted in female Balb/c nude mouse plasma at 2 mg/kg, po administered once daily; format: ADME, organism-based
[39] = AUC (0 to t) in human OVCAR-3 cells xenografted in female Balb/c nude mouse plasma at 10 mg/kg, po administered once daily; format: ADME, organism-based
[40] = test system: Mus musculus; assay: Downregulation of Myc protein in female Balb/c nude mouse xenografted with human HCC70 cells administered once daily for 7 days; format: functional; conditions: dose 2-10 mg/kg, time 7.0 day
[41] = Cmax in human HCC70 cells xenografted in female nu/nu mouse plasma at 3 mg/kg, po administered once daily; format: ADME, organism-based
[42] = Cmax in human HCC70 cells xenografted in female nu/nu mouse plasma at 10 mg/kg, po administered once daily; format: ADME, organism-based
[43] = Toxicity in female nu/nu mouse xenografted with human HCC70 cells assessed as body weight loss at 1 to 10 mg/kg, po administered once daily and measured for 4 weeks; format: organism-based; conditions: in vivo, 672 h, dose 1-10 mg/kg
[44] = test system: HCC70; assay: cells; conditions: Homo sapiens, HCC70, 72 h
Description: Antiproliferative activity against human HCC70 cells assessed as inhibition of cell proliferation incubated for 72 hrs by celltiter-glo assay

[45] = test system: OVCAR-3; assay: cells; conditions: Homo sapiens, OVCAR-3, 72 h
Description: Antiproliferative activity against human OVCAR-3 cells assessed as inhibition of cell proliferation incubated for 72 hrs by celltiter-glo assay

[46] = biological target: Cyclin-dependent kinase 7 (Homo sapiens) (UniProt P50613); assay: Inhibition of CDK7 (unknown origin) at 200 nM relative to control; values are per cent of control
Cyclin-dependent kinase 7 (Homo sapiens), sequence (P50613 whole entry): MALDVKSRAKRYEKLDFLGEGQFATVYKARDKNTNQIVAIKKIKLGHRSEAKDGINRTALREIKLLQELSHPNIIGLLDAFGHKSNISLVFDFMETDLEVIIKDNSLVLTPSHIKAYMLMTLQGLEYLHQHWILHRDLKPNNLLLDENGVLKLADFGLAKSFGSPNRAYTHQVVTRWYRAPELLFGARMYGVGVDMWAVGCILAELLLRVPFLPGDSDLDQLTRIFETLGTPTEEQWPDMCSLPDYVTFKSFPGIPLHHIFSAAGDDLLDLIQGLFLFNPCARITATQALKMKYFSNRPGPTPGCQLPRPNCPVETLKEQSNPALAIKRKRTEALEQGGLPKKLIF

[47] = biological target: T1, Ribosomal protein S6 kinase alpha-3; assay: Inhibition of RSK2 (unknown origin) at 200 nM relative to control; values are per cent of control
[48] = biological target: Serine/threonine-protein kinase D2 (Homo sapiens) (UniProt Q9BZL6); assay: Inhibition of PRKD2 (unknown origin) at 200 nM relative to control; values are per cent of control
Serine/threonine-protein kinase D2 (Homo sapiens), sequence (Q9BZL6 whole entry): as the sequence (Q9BZL6 whole entry) above

[49] = biological target: Cyclin-Y/Cyclin-dependent kinase 16 (Homo sapiens) (UniProt Q00536+Q8ND76); assay: Inhibition of CDK16/CyclinY (unknown origin) at 200 nM relative to control; values are per cent of control
[50] = biological target: Cyclin-dependent kinase 14/Cyclin-Y (Homo sapiens) (UniProt O94921+Q8ND76); assay: Inhibition of CDK14/Cyclin Y (unknown origin) at 200 nM relative to control; values are per cent of control
[51] = biological target: CDK4/Cyclin D3 (Homo sapiens) (UniProt P11802+P30281); assay: Inhibition of CDK4/Cyclin D3 (unknown origin) at 200 nM relative to control; values are per cent of control

Papp [1]: 3.69 ×10⁻⁶ cm/s
Cmax [2]: 355 ng/mL
bioavailability [3]: 78.7%
half-life [4]: 1.2 h
half-life [5]: 3.4 h
half-life [6]: 4.4 h
half-life [7]: 4.3 h
clearance [8]: 52.6 mL/min/kg
clearance [9]: 1.2 mL/min/kg
Vd [10]: 1.7 L/kg
Vd [11]: 0.24 L/kg
AUC(0-t) [12]: 554 ng·h/mL
Cmax [13]: 355 ng/mL
Cmax [14]: 6620 ng/mL
bioavailability [15]: 29%
concentration at 0.5 h [16]: 2240 ng/g
concentration at 0.5 h [17]: 33.9 ng/mL
concentration at 8 h [18]: 3.5 ng/mL
half-life [19]: 5.5 h
Cmax [20]: 3830 ng/mL
Cmax [21]: 3310 ng/mL
AUC(0-t) [22]: 14200 ng·h/mL
AUC(0-t) [23]: 15300 ng·h/mL
IC50 [24]: 258 nM
IC50 [25]: 45.2 nM
IC50 [26]: 291 nM
fraction unbound [27]: 0.043
fraction unbound [28]: 0.036
fraction unbound [29]: 0.044
CLint scaled [30]: 44.9 mL/min/kg
IC50 [31]: > 50000 nM
IC50 [32]: 7000 nM
half-life [36]: 2 h
Cmax [37]: 214 ng/mL
AUC(0-t) [38]: 329 ng·h/mL
AUC(0-t) [39]: 1720 ng·h/mL
IC50 [45]: 57 nM
residual activity [46]: 0.35%
residual activity [47]: 28%
residual activity [48]: 20%
residual activity [49]: 0.8%
residual activity [50]: 1.3%
residual activity [51]: 17%
SMILES: CN1CC(F)(F)CCN(C)[C@H]2CC[C@@H](C2)Nc2ncc(C(F)(F)F)c(n2)-c2c[nH]c3c(P(C)(C)=O)c(ccc23)C1=O
IC50 [33]: 9940 nM
inhibition in vivo at 5 mg/kg [34]: 111%
inhibition in vivo at 10 mg/kg [35]: 111%
Activity [40]: Dose-dependent-effect
Cmax [41]: 130 ng/mL
Cmax [42]: 401 ng/mL
Activity [43]: Non-toxic
IC50 [44]: 24.6 nM
